Results from PubChem BioAssay (NCI).
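Compound exposure: 48 hours, 5 concentrations, 96-well plates. The concentration for full growth arrest is given as TGI.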

Columns and labels:
Assay in all cases: growth of human tumour cells (NCI), 48 h
NCI/ADR-RES ovarian = system: NCI/ADR-RES ovarian
MOLT-4 leukemia = system: MOLT-4 leukemia
CAKI-1 renal = system: CAKI-1 renal
TK-10 renal = system: TK-10 renal
EKVX NSCLC = system: EKVX NSCLC
OVCAR-8 ovarian = system: OVCAR-8 ovarian
SK-OV-3 ovarian = system: SK-OV-3 ovarian
ACHN renal = system: ACHN renal
T-47D breast = system: T-47D breast
RPMI-8226 leukemia = system: RPMI-8226 leukemia
MDA-MB-231 breast = system: MDA-MB-231 breast
HCT-116 colon = system: HCT-116 colon
CCRF-CEM leukemia = system: CCRF-CEM leukemia
SK-MEL-5 melanoma = system: SK-MEL-5 melanoma
U251 CNS = system: U251 CNS
HS 578T breast = system: HS 578T breast
MDA-N = system: MDA-N
COLO 205 colon = system: COLO 205 colon
SW-620 colon = system: SW-620 colon
OVCAR-5 ovarian = system: OVCAR-5 ovarian
SF-539 CNS = system: SF-539 CNS
SR leukemia = system: SR leukemia
A498 renal = system: A498 renal
IGROV1 ovarian = system: IGROV1 ovarian
SNB-19 CNS = system: SNB-19 CNS
SF-268 CNS = system: SF-268 CNS
A549 NSCLC = system: A549 NSCLC
SF-295 CNS = system: SF-295 CNS
OVCAR-4 ovarian = system: OVCAR-4 ovarian
HCC-2998 colon = system: HCC-2998 colon
PC-3 prostate = system: PC-3 prostate
UACC-257 melanoma = system: UACC-257 melanoma
NCI-H23 lung = system: NCI-H23 lung
HCT-15 colon = system: HCT-15 colon
DU-145 prostate = system: DU-145 prostate
HOP-62 NSCLC = system: HOP-62 NSCLC
HT29 colon = system: HT29 colon
HL-60(TB) leukemia = system: HL-60(TB) leukemia
MCF7 breast = system: MCF7 breast
SN12C renal = system: SN12C renal
HOP-92 NSCLC = system: HOP-92 NSCLC
SK-MEL-2 melanoma = system: SK-MEL-2 melanoma
K-562 leukemia = system: K-562 leukemia
SNB-75 CNS = system: SNB-75 CNS
UO-31 renal = system: UO-31 renal
LOX IMVI melanoma = system: LOX IMVI melanoma
SK-MEL-28 melanoma = system: SK-MEL-28 melanoma
NCI-H460 lung = system: NCI-H460 lung
MALME-3M melanoma = system: MALME-3M melanoma
786-0 renal = system: 786-0 renal
KM12 colon = system: KM12 colon
NCI-H226 lung = system: NCI-H226 lung
MDA-MB-435 = system: MDA-MB-435
RXF 393 renal = system: RXF 393 renal
OVCAR-3 ovarian = system: OVCAR-3 ovarian
M14 melanoma = system: M14 melanoma
UACC-62 melanoma = system: UACC-62 melanoma

`C=C1CN=C(Nc2ccc(F)cc2F)S1` was tested. Which TGI (NCI/ADR-RES ovarian) did it give?
Its TGI is over 100 µM.

And the TGI (MOLT-4 leukemia)?
Its TGI is 96.5 µM.

What about the TGI (CAKI-1 renal) of the same compound?
The TGI was over 100 µM.

What about the TGI (TK-10 renal) of the same compound?
The TGI was over 100 µM.

And the TGI (EKVX NSCLC)?
The TGI was over 100 µM.

What about the TGI (OVCAR-8 ovarian) of the same compound?
Its TGI is over 100 µM.

What about the TGI (SK-OV-3 ovarian) of the same compound?
The TGI was over 100 µM.

And the TGI (ACHN renal)?
Its TGI is over 100 µM.

What about the TGI (T-47D breast) of the same compound?
The TGI was over 100 µM.

And the TGI (RPMI-8226 leukemia)?
Its TGI is over 100 µM.

What about the TGI (MDA-MB-231 breast) of the same compound?
The TGI was over 100 µM.

And the TGI (HCT-116 colon)?
Its TGI is over 100 µM.

And the TGI (CCRF-CEM leukemia)?
The TGI was 66.1 µM.

What about the TGI (SK-MEL-5 melanoma) of the same compound?
The TGI was over 100 µM.

What about the TGI (U251 CNS) of the same compound?
The TGI was over 100 µM.

What about the TGI (HS 578T breast) of the same compound?
Its TGI is over 100 µM.

And the TGI (MDA-N)?
The TGI was over 100 µM.

What about the TGI (COLO 205 colon) of the same compound?
Its TGI is over 100 µM.

What about the TGI (SW-620 colon) of the same compound?
The TGI was over 100 µM.

And the TGI (OVCAR-5 ovarian)?
The TGI was over 100 µM.

And the TGI (SF-539 CNS)?
Its TGI is over 100 µM.

What about the TGI (SR leukemia) of the same compound?
Its TGI is over 100 µM.

And the TGI (A498 renal)?
Its TGI is over 100 µM.

And the TGI (IGROV1 ovarian)?
The TGI was over 100 µM.

And the TGI (SNB-19 CNS)?
Its TGI is over 100 µM.

And the TGI (SF-268 CNS)?
The TGI was over 100 µM.

And the TGI (A549 NSCLC)?
The TGI was over 100 µM.

And the TGI (SF-295 CNS)?
Its TGI is over 100 µM.

What about the TGI (OVCAR-4 ovarian) of the same compound?
The TGI was over 100 µM.

And the TGI (HCC-2998 colon)?
Its TGI is over 100 µM.

What about the TGI (PC-3 prostate) of the same compound?
Its TGI is over 100 µM.

And the TGI (UACC-257 melanoma)?
Its TGI is over 100 µM.

And the TGI (NCI-H23 lung)?
The TGI was over 100 µM.

And the TGI (HCT-15 colon)?
Its TGI is over 100 µM.

What about the TGI (DU-145 prostate) of the same compound?
The TGI was over 100 µM.

And the TGI (HOP-62 NSCLC)?
Its TGI is over 100 µM.

And the TGI (HT29 colon)?
Its TGI is over 100 µM.

And the TGI (HL-60(TB) leukemia)?
Its TGI is over 100 µM.

And the TGI (MCF7 breast)?
Its TGI is over 100 µM.

And the TGI (SN12C renal)?
The TGI was over 100 µM.

What about the TGI (HOP-92 NSCLC) of the same compound?
Its TGI is over 100 µM.

What about the TGI (SK-MEL-2 melanoma) of the same compound?
The TGI was over 100 µM.

And the TGI (K-562 leukemia)?
The TGI was over 100 µM.

What about the TGI (SNB-75 CNS) of the same compound?
Its TGI is over 100 µM.

What about the TGI (UO-31 renal) of the same compound?
Its TGI is over 100 µM.

What about the TGI (LOX IMVI melanoma) of the same compound?
The TGI was 49.2 µM.

And the TGI (SK-MEL-28 melanoma)?
The TGI was over 100 µM.

And the TGI (NCI-H460 lung)?
Its TGI is over 100 µM.

What about the TGI (MALME-3M melanoma) of the same compound?
The TGI was over 100 µM.

And the TGI (786-0 renal)?
The TGI was over 100 µM.

And the TGI (KM12 colon)?
The TGI was over 100 µM.

Which results are given for `O=C1c2c(O)cccc2Cc2cccc(O)c21`?
TGI (CAKI-1 renal): 1.2 µM; TGI (TK-10 renal): 5.35 µM; TGI (EKVX NSCLC): 0.572 µM; TGI (OVCAR-8 ovarian): 1.04 µM; TGI (SK-OV-3 ovarian): 1.21 µM; TGI (ACHN renal): 1.1 µM; TGI (RPMI-8226 leukemia): 1.03 µM; TGI (SK-MEL-5 melanoma): 0.33 µM; TGI (U251 CNS): 1.47 µM; TGI (HS 578T breast): 1.09 µM; TGI (MDA-N): 10.2 µM; TGI (SF-539 CNS): 0.923 µM; TGI (SR leukemia): 1.74 µM; TGI (A498 renal): 4.81 µM; TGI (IGROV1 ovarian): 1.56 µM; TGI (NCI-H226 lung): 1.27 µM; TGI (SNB-19 CNS): 5.39 µM; TGI (SF-268 CNS): 3.25 µM; TGI (A549 NSCLC): 1.07 µM; TGI (SF-295 CNS): 0.782 µM; TGI (OVCAR-4 ovarian): 1.8 µM; TGI (MDA-MB-435): 11.2 µM; TGI (RXF 393 renal): 1.33 µM; TGI (UACC-257 melanoma): 0.653 µM; TGI (NCI-H23 lung): 12.8 µM; TGI (DU-145 prostate): 0.942 µM; TGI (HOP-62 NSCLC): 1.32 µM; TGI (OVCAR-3 ovarian): 1.97 µM; TGI (HT29 colon): 1.55 µM; TGI (HL-60(TB) leukemia): 0.672 µM; TGI (MCF7 breast): 0.664 µM; TGI (M14 melanoma): 1.97 µM; TGI (UO-31 renal): 1.15 µM; TGI (SK-MEL-28 melanoma): 3.75 µM; TGI (NCI-H460 lung): 1.31 µM; TGI (UACC-62 melanoma): 3.07 µM; TGI (786-0 renal): 1.76 µM; TGI (KM12 colon): 1.32 µM
